Results from patent publication US8772237B2, “Compositions and methods for counteracting effects of reactive oxygen species and free radicals” (Ischemix, Inc., priority 1999, dated 2014).
Ends that are not written are not given here. * marks the point of attachment. Palmitoyl = CCCCCCCCCCCCCCCC(=O)*; Gga = not defined here

Tests used:
[1] = system: superoxide dismutase (SOD) protein; experiment: Western immunoblot of SOD protein in rat brain primary cortical cultures; format: cell-based; settings: for SOD: 5 hours at 37° C.
Description: Primary cortical cultures were obtained by growing newborn rat brain cortical cells in Delbecco's modified Eagle medium supplemented with 25 μg/ml of gentamycin and 10% fetal calf serum. The cells were isolated from the E-21 cortex of rat brain, plated at a density of 1×10^5 per ml and grown to confluence within four to five days in an atmosphere containing air and 5% CO2 at 37° C. as described in Cornell-Bell et al., Science, 247: 470-473 (1990) and Cell Calcium, 12: 185-204 (1991). Cultures were grown in 20 ml flasks as a monolayer and then exposed to various concentrations of peptides for studies of the effects of peptides on upregulation of genes for SOD and CAT and on the transmigration of transcription factor AP-1 to cell nuclei. […]
(§1) Tissue culture experiments were carried out using primary cultures of rat brain cortical cells as previously described above in Example 2. Primary cultures from embryonic rat brain isolated at E-21 (21 day embryos) and incubated for five hours with various doses: 1, 10, 100 ng/ml of CMX-99672. Cytoplasmic proteins were isolated and analyzed for upregulation of SOD and CAT by Western immunoblots as described above. […] The Western blot was scanned to quantify the fold-increase in SOD production in cell cultures treated with the CMX-99672 peptide compound.
Representative peptide compounds were tested at various doses and compared for their ability to upregulate expression of genes for SOD and/or CAT in rat primary cortical cultures basically as described above. Cultures were incubated with a peptide compound for 5 hours at 37° C. Cytoplasmic protein fractions were prepared as described above. Cytoplasmic proteins were separated by gel electrophoresis and analyzed by Western immunoblots using antisera to SOD and CAT, respectively (Rockland, Inc., Gilbertsville, Pa.). […]

catalase (CAT) protein = experiment: Western immunoblot of CAT protein in rat primary cortical cultures; format: cell-based; settings: for CAT: 5 hours at 37° C.
Description: as §1
Representative peptide compounds were tested at various doses and compared for their ability to upregulate expression of genes for SOD and/or CAT in rat primary cortical cultures basically as described above. Cultures were incubated with a peptide compound for 5 hours at 37° C. Cytoplasmic protein fractions were prepared as described above. Cytoplasmic proteins were separated by gel electrophoresis and analyzed by Western immunoblots using antisera to SOD and CAT, respectively (Rockland, Inc., Gilbertsville, Pa.).

[2] = system: Superoxide Dismutase (SOD); experiment: In vivo upregulation of SOD in rat organs (Western immunoblot); set-up: species or system Sprague-Dawley rats; settings: for SOD Activity: 6-hour treatment, 10 mg/kg i.v.
Description: In vivo experiments were carried out in Sprague-Dawley rats (300-325 g) with solutions of CMX-1152 or CMX-99672. The animals were injected intravenously (iv) via the tail vein with a peptide compound. […] The animals were sacrificed by decapitation at 6, 12, 24, 48, and 72 hours post injection and dissected to isolate brain, liver, heart, kidney, lung organs, which were frozen at −70° C. for subsequent analysis. In addition, 2 ml samples of whole blood were taken from each animal. Half (1 ml) of each sample was centrifuged to remove nuclei and cell membranes to yield plasma. The remaining half was stored frozen as whole blood at −70° C.
Each tissue was thawed and homogenized in a Down's homogenizer using ten volumes of homogenizer buffer (see, Adams et al., General Cellular Biochemistry, 77: 221-233 (2000); buffer as described in Adams et al., J. Leukoc. Biol., 62: 865-875 (1967)) to obtain a crude cytoplasmic fraction. The tissue homogenates were centrifuged (14,000×g for 5 minutes at 4° C.) to yield the supernatant purified cytoplasmic protein fractions as described in Adams et al. (J. Cell. Biochem., 77: 221-233 (2000)). A 10 μg sample of each protein fraction was then separated by SDS polyacrylamide gel electrophoresis (SDS-PAGE) and analyzed for SOD and CAT content by Western blot assay.
Control for measurement of unstimulated levels of SOD and CAT were obtained from two vehicle only (i.e., no peptide compound) injected rats that were sacrificed at 24 and 72 hours post injection. Both had essentially the same unstimulated levels of SOD and CAT. Standard quantities of each cytoplasmic fractions (10 μg) were loaded on a lane of a gel for electrophoretic separation and Western immunoblot analysis (Adams et al., J. Cell. Biochem., 77: 221-233 (2000)). The stained gels were photographed and scanned by laser densitometry to quantify intensities in comparison to enzyme levels for control vehicle treated rats.

[3] = system: transcription factor AP-1; experiment: Electrophoretic mobility shift assay (EMSA) for AP-1 activation in primary rat neurons / cortical cultures; format: cell-based
Description: Nuclear extracts for electrophoretic mobility shift assays (EMSAs) were prepared as described previously (Adams et al., J. Leukocyte Biol., 62: 865-873 (1997)) using 1.0-2.0×10^7 cells per sample. All buffers were freshly supplemented with dithiothreitol (DTT, 0.5 mM), protease inhibitors: PMSF (0.5 mM), chymostatin, peptstatin-A, aprotinin, antipain, leupeptin (each at 1 μg/ml), and phosphatase inhibitors: NaF (10 mM), ZnCl2 (1 mM), sodium orthovanadate (1 mM), and sodium pyrophosphate (5 mM). Aliquots of the final dialyzates were stored at −80° C. and discarded after use.
AP-1 transcription factor activation was assayed using an electrophoretic mobility shift assay (EMSA), as described by Adams et al., J. Leukoc. Biol., 62:865-873 (1997)). Cultures of primary rat neurons (Cornell-Bell et al., Cell Calcium, 12: 185-204 (1991)) were stimulated for 3 hours with various concentrations (0, 1, 10, 100 ng/ml) of peptide CMX-9236. Nuclear extracts prepared as described above were separated by gel electophoresis on non-denaturing gels and subjected to the EMSA procedure. This EMSA used an AP-1 synthetic duplex probe (Angel, P., 1987, Cell 49:729-739) having the sequence 5′-[…] (SEQ ID NO:33) and its antisense copy (complement strand), which were end-labeled with P^32 using polynucleotide kinase and (γ-P^32)-ATP. For the EMSA reaction, the labeled probe (0.5 pmol) was mixed with 3 μg of nuclear extract protein in a solution containing 10 mM Tris-HCl, pH 7.5, 50 mM NaCl, 1 mM EDTA, 1 mM dithiothreitol, 5% glycerol, 0.02% β-mercaptoethanol, and 1 μg of poly-dI/dC (Pharmacia). Reaction mixtures were incubated at 25° C. for 20 minutes to allow complete complex formation by the duplex with its appropriate AP-1 protein. The mixture was then electrophoresed under non-denaturing conditions through 4% polyacrylamide gels in 0.5×TBE buffer (45 mM Trisma base, 45 mM boric acid, 1 mM EDTA). The gels were dried on 3 mm paper. Bands were visualized by autoradiography at −80° C. with one intensifying screen and quantified by laser densitometry. The upregulation of AP-1 and the activation and upregulation process of AP-1 was compared to control cultures.
Primary cortical cell cultures were grown to confluence and used in in vitro cultures for determining the effects of various representative peptide compounds on upregulation of AP-1. […] Extracts were prepared from the nuclei isolated from the primary culture homogenates, purified, and analyzed for the presence of specific transcription factors using the electrophoretic mobility shift assay (EMSA) method. The binding of ^32P-labeled duplex DNA probes specific for activator protein-1 (AP-1) or nuclear factor κB (NF-κB) was analyzed and quantified by autoradiography. After a 3-hour incubation of the cultures with 1 ng/ml of the peptide CMX-9236 there was a 15-fold increase of AP-1 relative to […] control cultures. […] Thus, a small peptide compound that is less than 20 amino acids long can simulate the properties of large growth factors such as NGF and BDNF, which exist as dimers of protein chains with molecular weights of 13,259 and 13,500, respectively.

[4] = system: middle cerebral artery (MCA) permanent occlusion stroke model; experiment: Permanent MCA 24-hour occlusion stroke model; format: in vivo, Sprague-Dawley rats
[5] = five hours, doses 1, 10, 100 ng/ml

## [Ac] Thr Val Ser [CMX-99647]
[1]; Dose 6.7 pmol/ml
  SOD: 2066 % Control

## [Gga] Asp Gly Asp Gly Phe Ala (Gga-DGDGFA; not fully specified; printed as [Gga] Asp Gly Asp Gly Phe Ala; reading uncertain) [CMX-99661]
[1]; Dose 6.7 pmol/ml
  SOD: 463 % Control

## KKQTLQFR
[1]; Dose 95 pmol/ml
  SOD: 350 % Control
Catalase (CAT) protein; Dose 95 pmol/ml
  CAT: 400 % Control

## [Ac] Asp Gly Asp Gly Phe Ala (Ac-DGDGFA) [CMX-99655]
[1]; Dose 8 pmol/ml
  SOD: 750 % Control
Catalase (CAT) protein; Dose 8 pmol/ml
  CAT: 520 % Control

## Asp Gly [CMX-1152]
[2]; Brain
  SOD Activity: 520 % of Control
[2]; Heart
  SOD Activity: 550 % of Control
[2]; Kidney
  SOD Activity: 200 % of Control
[2]; Liver
  SOD Activity: 200 % of Control
[2]; Lung
  SOD Activity: 520 % of Control
[2]; Plasma
  SOD Activity: 420 % of Control
[2]; Whole Blood
  SOD Activity: 490 % of Control
[2]; brain, heart, lung, and blood
  upregulation in SOD production relative to control: four to five-fold
[2]; liver and kidney
  upregulation in SOD production relative to control: approximately two-fold
[1]; Dose 6.7 pmol/ml
  SOD: 2143 % Control
[1]; Dose 1 ng/ml
  SOD Upregulation: 170 % Control
[1]; Dose 10 ng/ml
  SOD Upregulation: 330 % Control
[1]; Dose 100 ng/ml
  SOD Upregulation: 420 % Control

## KKDGDGDFA [CMX-9902]
[1]; culture in vitro studies
  upregulation of SOD proteins (in words): upregulated SOD proteins
[3]
  activation / upregulation of AP-1 (in words): increased nuclear migration of AP-1
[4]; Dose 0.05 mg/hr
  Percent Neurological Rescue: 35 ± 12%
  Percent Rescue (percent decrease in infarct size vs vehicle controls): 29 ± 7%

## [Palm] Asp Gly Asp Gly Phe Ala (Palmitoyl-DGDGFA) [CMX-9960]
[1]; Dose 6.7 pmol/ml
  SOD: 527 % Control

## [DHA]-Lys Lys Asp Gly Asp Gly Asp Phe Ala Ile Asp Ala Pro Glu [CMX-9236D]
[4]; Dose 0.03 mg/hr
  Percent Neurological Rescue: 50 ± 18%
  Percent Rescue (percent decrease in infarct size vs vehicle controls): 48 ± 12%

## Asp Gly [CMX-99672]
[1]; [5]
  increase in SOD: approximately 30 fold
  increase in SOD-related protein: ~20 fold
Catalase (CAT) protein; [5]
  upregulation of CAT (in words): Comparable data was obtained for CAT
